Experimental findings from patent US20050032873A1, “3-Amino chroman and 2-amino tetralin derivatives” (Wyeth, priority 2003, published 2005) are described below.

In one test the target is T1, serotonin transporter (Rattus norvegicus, UniProt P31652).
T1 construct: displace ^3H-paroxetine from male rat cortical membranes; from tissue; host or cells: male rat cortical membranes
Briefly: 5-HT transporter affinity: displacement of 3H-paroxetine from male rat cortical membranes. Conditions: for Ki: displacement of 3H-paroxetine, male rat cortical membranes, read-out: 5-HT Transporter Affinity Ki. The test is classed as binding. For orientation: Loss of bound radioactivity is the signal in a displacement assay; it reports binding, not function.

In test [1] the target is T2, cloned human 5-HT1A receptors (Homo sapiens, UniProt P08908).
T2 construct: expressed in transfected cells
T2 sequence (P08908 1-422): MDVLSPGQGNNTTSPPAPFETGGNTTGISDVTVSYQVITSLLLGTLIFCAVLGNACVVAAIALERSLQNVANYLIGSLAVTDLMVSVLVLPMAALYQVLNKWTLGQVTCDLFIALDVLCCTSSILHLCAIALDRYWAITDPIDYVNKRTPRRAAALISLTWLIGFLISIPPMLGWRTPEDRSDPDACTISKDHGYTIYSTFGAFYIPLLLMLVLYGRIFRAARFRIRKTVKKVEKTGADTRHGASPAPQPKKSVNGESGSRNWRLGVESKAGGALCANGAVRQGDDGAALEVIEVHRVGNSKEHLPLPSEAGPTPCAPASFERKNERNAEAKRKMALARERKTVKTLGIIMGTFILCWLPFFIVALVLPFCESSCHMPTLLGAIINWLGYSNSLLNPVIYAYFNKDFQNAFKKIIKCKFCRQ
Description: 35S-GTPγS binding assay, 5-HT1A function. The class given is biochemical. Conditions: for EC50: agonist potency; for IC50: antagonist potency, reversal of 8-OH-DPAT, read-out: 5-HT1A Function GTPγS IC50.

The target in test [2] is T3, 5-HT1A receptor (Homo sapiens, UniProt P08908).
T3 sequence (P08908 1-422): T2 sequence (P08908 1-422)
Description: cAMP accumulation assay, 5-HT1A function. The class given is cell-based. The note with it: for EC50: cells marked EC50 (agonist); for 5-HT1A Function cAMP (Emax) / Emax: in brackets after EC50 or IC50; for IC50: cells marked IC50 (antagonist), read-out: 5-HT1A Function cAMP IC50; for Emax: read-out: 5-HT1A Function cAMP (Emax). A general note: Cyclic AMP is a second messenger, typically raised through Gs and lowered through Gi signalling.

For test [3], the target named is T3, 5-HT1A receptor. Description: 5-HT1A receptor affinity: displacement of [3H] 8-OH-DPAT. The test is classed as binding. On the set-up: expressed in transfected cells. The note with it: displacement of [3H] 8-OH-DPAT; CHO cells stably transfected with human 5-HT1A receptors; read-out: 5-HT1A Receptor Affinity Ki.
Setting [4] is: maximum stimulatory effect, in brackets after EC50, read-out: 5-HT1A Function GTPγS (Emax).
Where [5] appears, read: maximum inhibitory effect, in brackets after IC50, read-out: 5-HT1A Function GTPγS (Imax).

Where two headings read alike, the source gives them in different places.

One may read the Ki as a dissociation constant, usually derived from enzyme kinetics or from competition with a known ligand. In general, EC50 refers to the concentration needed to bring the measured effect to its halfway point. Read a high EC50 as lower potency in that assay. As usually defined, the IC50 is the concentration that inhibits the measured activity by half.

T1 sequence (P31652 whole entry): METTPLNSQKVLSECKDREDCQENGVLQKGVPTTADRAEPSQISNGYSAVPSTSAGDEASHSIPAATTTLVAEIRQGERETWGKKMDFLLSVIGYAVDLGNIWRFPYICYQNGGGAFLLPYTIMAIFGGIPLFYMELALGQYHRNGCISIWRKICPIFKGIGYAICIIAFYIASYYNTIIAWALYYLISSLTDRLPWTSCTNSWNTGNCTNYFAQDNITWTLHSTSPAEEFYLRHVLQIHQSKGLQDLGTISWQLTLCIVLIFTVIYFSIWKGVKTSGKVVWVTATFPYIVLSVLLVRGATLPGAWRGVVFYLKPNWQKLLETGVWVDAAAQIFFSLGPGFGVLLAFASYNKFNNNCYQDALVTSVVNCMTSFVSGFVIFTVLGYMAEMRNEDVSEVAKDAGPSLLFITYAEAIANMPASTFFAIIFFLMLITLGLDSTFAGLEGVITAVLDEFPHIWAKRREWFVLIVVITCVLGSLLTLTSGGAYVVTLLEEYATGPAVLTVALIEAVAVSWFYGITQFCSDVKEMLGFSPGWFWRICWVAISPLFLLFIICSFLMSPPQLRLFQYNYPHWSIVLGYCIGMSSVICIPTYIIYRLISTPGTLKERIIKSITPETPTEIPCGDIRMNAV

For `CC(CCc1c[nH]c2ccc(F)cc12)N(CC1CC1)C1COc2c(F)ccc(C(N)=O)c2C1` (single isomer, unassigned; (+)) [Compound 15b, (+)-3-{(cyclopropylmethyl)[3-(5-fluoro-1H-indol-3-yl)-1-methylpropyl]amino}-8-fluorochromane-5-carboxamide], the results for the inhibitory constant (Ki) at serotonin transporter and at 5-HT1A receptor [3] were 0.0467 µM and 0.0317 µM, respectively. The results for the EC50 (in test [1]; at 5-HT1A receptor [2]) were 0.108 µM and 0.0324 µM, respectively. Moreover, the Emax in test [1] (setting [4]) was 32%. This molecule came in with a 5-HT1A Function cAMP (Emax) on 5-HT1A receptor [2] of 73%.

`CNC(=O)c1ccc(F)c2c1CC(N(CCc1c[nH]c3ccc(F)cc13)CC1CC1)CO2` (centres unmarked) [Compound 86, 3-{(cyclopropylmethyl)[2-(5-fluoro-1H-indol-3-yl)ethyl]amino}-8-fluoro-N-methylchromane-5-carboxamide]: the Ki is 0.07 µM at serotonin transporter and 0.00882 µM on 5-HT1A receptor [3]. Moreover, the IC50 came to 0.773 µM in test [1] and 0.229 µM at 5-HT1A receptor [2]. Also, the Emax was found to be 100% in test [1] (setting [5]) and 0% at 5-HT1A receptor [2].

As to `CCN(CC1CCc2[nH]c3ccc(F)cc3c2C1)[C@H]1COc2c(F)ccc(C(N)=O)c2C1` (single isomer, unassigned; (-)) [Compound 176a], the Ki was found to be 0.619 µM on serotonin transporter and 0.392 µM at 5-HT1A receptor [3]. Further, the IC50 is 4.26 µM in test [1] and 0.878 µM on 5-HT1A receptor [2]. Moreover, the Emax in test [1] (setting [5]) worked out at 92%; at 5-HT1A receptor [2] it was 0%.

On to `COC(=O)c1ccc(F)c2c1CC(NCCCc1c[nH]c3ccc(F)cc13)CO2` (centres unmarked) [Compound 10, Methyl 8-fluoro-3-{[3-(5-fluoro-1H-indol-3-yl)propyl]amino}chromane-5-carboxylate], for which the Ki came out at 0.0109 µM at serotonin transporter and 0.00625 µM at 5-HT1A receptor [3]. For the same molecule, the concentration giving a half-maximal response (EC50) in test [1] was 0.0305 µM; at 5-HT1A receptor [2], 0.0163 µM. The Emax was determined as 85% in test [1] (setting [4]) and 70.5% at 5-HT1A receptor [2].

Take `COc1cccc2c(CCN(CC3CC3)C3COc4c(F)ccc(C(N)=O)c4C3)coc12` (centres unmarked) [Compound 160, 3-{(cyclopropylmethyl)[2-(7-methoxy-1-benzofuran-3-yl)ethyl]amino}-8-fluorochromane-5-carboxamide]: the Ki amounted to 0.127 µM at serotonin transporter and 0.0338 µM on 5-HT1A receptor [3]. This molecule yielded an EC50 in test [1] of 1.02 µM. For the same molecule, the Emax in test [1] (setting [4]) came to 51%; at 5-HT1A receptor [2], 0%. Also, the IC50 on 5-HT1A receptor [2] was found to be 0.948 µM.

Regarding `CNC(=O)c1ccc(F)c2c1CC(N(CCCCc1c[nH]c3ccc(F)cc13)CC1CC1)CO2` (centres unmarked) [Compound 94, 3-{(cyclopropylmethyl)[4-(5-fluoro-1H-indol-3-yl)butyl]amino}-8-fluoro-N-methylchromane-5-carboxamide], the Ki was 0.00127 µM at serotonin transporter and 0.00166 µM on 5-HT1A receptor [3]. Moreover, the values for the half-inhibitory concentration (IC50) (in test [1]; at 5-HT1A receptor [2]) were 0.141 µM and 0.0584 µM, respectively. Also, the Emax was 100% in test [1] (setting [5]) and 0% at 5-HT1A receptor [2].

Turning to `CCN(CCCc1coc2c(OC)cccc12)C1COc2c(F)ccc(C(N)=O)c2C1` (centres unmarked) [Compound 162, 3-{ethyl[3-(7-methoxy-1-benzofuran-3-yl)propyl]amino}-8-fluorochromane-5-carboxamide], the inhibitory constant (Ki) on serotonin transporter is 0.0615 µM; at 5-HT1A receptor [3], 0.00209 µM. Also, the EC50 in test [1] was determined as 0.0458 µM. Besides, the values for the Emax (in test [1] (setting [4]); on 5-HT1A receptor [2]) were 87% and 0%, respectively.

`CCN(CCCc1coc2ccccc12)C1COc2cccc(OC)c2C1` (centres unmarked) [Compound 21, N-[3-(1-benzofuran-3-yl)propyl]-N-ethyl-5-methoxychroman-3-amine]: the Ki on serotonin transporter was found to be 0.311 µM; on 5-HT1A receptor [3], 0.00038 µM. Besides, the results for the EC50 (in test [1]; on 5-HT1A receptor [2]) were 0.0281 µM and 0.00951 µM, respectively. The Emax in test [1] (setting [4]) turned out to be 98.5%; on 5-HT1A receptor [2] it was 90.5%.

In the case of `CCCN(CCCc1c[nH]c2ccc(OC)cc12)C1COc2c(F)ccc(C(N)=O)c2C1` (centres unmarked) [Compound 106, 8-fluoro-3-[[3-(5-methoxy-1H-indol-3-yl)propyl](propyl)amino]chromane-5-carboxamide], at serotonin transporter (@ 1 μM), the “5-HT Transporter Affinity, % @ 1 μM” value is recorded as 53% @ 1 μM. The EC50 in test [1] was found to be 0.0531 µM; at 5-HT1A receptor [2] it was 0.00253 µM. For the same molecule, in test [1], the IC50 came out at 0.111 µM. Besides, the Emax stood at 42% in test [1] (setting [5]), 47% in test [1] (setting [4]) and 99% at 5-HT1A receptor [2]. Also, the inhibition constant Ki at 5-HT1A receptor [3] was determined as 0.00061 µM.

Take `CCCN(CCCCc1c[nH]c2ccc(F)cc12)C1COc2cccc(OC)c2C1` (centres unmarked) [Compound 30, N-[4-(5-fluoro-1H-indol-3-yl)butyl]-5-methoxy-N-propylchroman-3-amine]: the results for the Ki at serotonin transporter and on 5-HT1A receptor [3] were 0.0126 µM and 0.00362 µM, respectively. Further, the EC50 in test [1] came out at 0.0946 µM; on 5-HT1A receptor [2] it was 0.0277 µM. For the same molecule, the Emax in test [1] (setting [4]) is 83%; at 5-HT1A receptor [2], 94%.

With `CCCN(C(C)CCc1c[nH]c2ccc(F)cc12)C1COc2c(F)ccc(C(N)=O)c2C1` (single isomer, unassigned) [Compound 12c, 8-fluoro-3-[[3-(5-fluoro-1H-indol-3-yl)-1-methylpropyl](propyl)amino]-3,4-dihydro-2H-chromene-5-carboxamide], the Ki at serotonin transporter worked out at 0.121 µM; on 5-HT1A receptor [3] it was 0.0488 µM. Further, the half-maximal inhibitory concentration (IC50) was 3 µM in test [1] and 0.0737 µM on 5-HT1A receptor [2]. In test [1] (maximum inhibitory effect, in brackets after IC50), this molecule showed a 5-HT1A Function GTPγS (Imax) of 100%. Further, on 5-HT1A receptor [2], the 5-HT1A Function cAMP (Emax) stood at 0%.

As for `CCN(CCCc1c[nH]c2ccc(F)cc12)C1COc2cccc(OC)c2C1` (centres unmarked) [Compound 31, N-ethyl-N-[3-(5-fluoro-1H-indol-3-yl)propyl]-5-methoxychroman-3-amine], the values for the Ki at serotonin transporter and on 5-HT1A receptor [3] were 0.0022 µM and 0.00233 µM, respectively. Also, the EC50 in test [1] turned out to be 0.0535 µM; on 5-HT1A receptor [2] it was 0.0263 µM. The Emax in test [1] (setting [4]) came out at 99%; on 5-HT1A receptor [2], 96%.

Regarding `CCCN(CCCc1coc2c(OC)cccc12)C1COc2c(F)ccc(C(N)=O)c2C1` (centres unmarked) [Compound 163, 8-fluoro-3-[[3-(7-methoxy-1-benzofuran-3-yl)propyl](propyl)amino]chromane-5-carboxamide], the Ki on serotonin transporter worked out at 0.539 µM; on 5-HT1A receptor [3] it was 0.00074 µM. Also, the midpoint of the response in test [1], the EC50, lay at 0.00456 µM. The Emax was found to be 52% in test [1] (setting [4]) and 0% on 5-HT1A receptor [2].

With `NC(=O)c1ccc(F)c2c1OCC(N(CCCc1c[nH]c3c(F)cc(F)cc13)CC1CC1)C2` (centres unmarked) [Compound 130, 3-{(cyclopropylmethyl)[3-(5,7-difluoro-1H-indol-3-yl)propyl]amino}-5-fluorochromane-8-carboxamide], the Ki stood at 0.166 µM on serotonin transporter and 0.0743 µM on 5-HT1A receptor [3]. The EC50 stood at 0.788 µM in test [1] and 0.0148 µM at 5-HT1A receptor [2]. Also, the values for the Emax (in test [1] (setting [4]); on 5-HT1A receptor [2]) were 39% and 72%, respectively.

In the case of `CCCN(CCCc1c[nH]c2ccc(F)cc12)[C@@H]1CCc2cccc(OC)c2C1` [Compound 47b, (2R)-N-[3-(5-fluoro-1H-indol-3-yl)propyl]-8-methoxy-N-propyl-1,2,3,4-tetrahydronaphthalen-2-amine], the figures for the Ki at serotonin transporter and at 5-HT1A receptor [3] were 0.0011 µM and 0.00034 µM, respectively. For the same molecule, the 50% effective concentration (EC50) stood at 0.0194 µM in test [1] and 0.00155 µM at 5-HT1A receptor [2]. The Emax in test [1] (setting [4]) amounted to 87%; at 5-HT1A receptor [2], 100%.

For `CCN(CCCc1c[nH]c2ccc(Cl)cc12)C1COc2c(F)ccc(C(N)=O)c2C1` (centres unmarked) [Compound 115, 3-[[3-(5-chloro-1H-indol-3-yl)propyl](ethyl)amino]-8-fluorochromane-5-carboxamide], the Ki at serotonin transporter worked out at 0.0214 µM; on 5-HT1A receptor [3] it was 0.00604 µM. Further, the EC50 in test [1] came out at 0.0522 µM; at 5-HT1A receptor [2], 0.046 µM. Further, the IC50 in test [1] turned out to be 1.99 µM. In addition, the figures for the Emax (in test [1] (setting [5]); in test [1] (setting [4]); on 5-HT1A receptor [2]) were 72%, 38% and 77%, respectively.

As for `CCN(C(C)CCc1c[nH]c2ccc(F)cc12)C1COc2c(F)ccc(C(N)=O)c2C1` (single isomer, unassigned; (-)) [Compound 16a, (−)-3-{ethyl[3-(5-fluoro-1H-indol-3-yl)-1-methylpropyl]amino}-8-fluorochromane-5-carboxamide], the inhibition constant (Ki) at serotonin transporter is 0.0009 µM; on 5-HT1A receptor [3] it was 0.0373 µM. The IC50 in test [1] came out at 3 µM; on 5-HT1A receptor [2] it was 0.187 µM. For the same molecule, the Emax in test [1] (setting [5]) turned out to be 100%. The molecule further returned a 5-HT1A Function cAMP (Emax) on 5-HT1A receptor [2] of 0%.

Take `CN(C)C(=O)c1ccc(F)c2c1CC(N(CCCc1c[nH]c3ccc(F)cc13)C1CCC1)CO2` (centres unmarked) [Compound 73, 3-{cyclobutyl[3-(5-fluoro-1H-indol-3-yl)propyl]amino}-8-fluoro-N,N-dimethylchromane-5-carboxamide]: the figures for the Ki on serotonin transporter and on 5-HT1A receptor [3] were 0.0288 µM and 0.372 µM, respectively. Moreover, the IC50 in test [1] worked out at 5.73 µM; on 5-HT1A receptor [2] it was 0.155 µM. Also, the Emax in test [1] (setting [5]) was found to be 40%; at 5-HT1A receptor [2], 0%.
